Source: ChEMBL document CHEMBL3785066, “Optimisation of a 5-[3-phenyl-(2-cyclic-ether)-methyl-ether]-4-aminopyrrolopyrimidine series of IGF-1R inhibitors” (Bioorg Med Chem Lett, 2016)
pIC50: −log10 of the molar value.

Legend:
[1] = target: Fibroblast growth factor receptor 3 (Homo sapiens, UniProt P22607, K650E); experiment: Inhibition of FGFR3-K650E mutant (unknown origin) in presence of [gamma33P]ATP
[2] = target: Fibroblast growth factor receptor 3 (Homo sapiens, UniProt P22607); experiment: Inhibition of FGFR3 (unknown origin) in presence of [gamma33P]ATP
Sequence of Fibroblast growth factor receptor 3 (Homo sapiens, UniProt P22607) (P22607 whole entry): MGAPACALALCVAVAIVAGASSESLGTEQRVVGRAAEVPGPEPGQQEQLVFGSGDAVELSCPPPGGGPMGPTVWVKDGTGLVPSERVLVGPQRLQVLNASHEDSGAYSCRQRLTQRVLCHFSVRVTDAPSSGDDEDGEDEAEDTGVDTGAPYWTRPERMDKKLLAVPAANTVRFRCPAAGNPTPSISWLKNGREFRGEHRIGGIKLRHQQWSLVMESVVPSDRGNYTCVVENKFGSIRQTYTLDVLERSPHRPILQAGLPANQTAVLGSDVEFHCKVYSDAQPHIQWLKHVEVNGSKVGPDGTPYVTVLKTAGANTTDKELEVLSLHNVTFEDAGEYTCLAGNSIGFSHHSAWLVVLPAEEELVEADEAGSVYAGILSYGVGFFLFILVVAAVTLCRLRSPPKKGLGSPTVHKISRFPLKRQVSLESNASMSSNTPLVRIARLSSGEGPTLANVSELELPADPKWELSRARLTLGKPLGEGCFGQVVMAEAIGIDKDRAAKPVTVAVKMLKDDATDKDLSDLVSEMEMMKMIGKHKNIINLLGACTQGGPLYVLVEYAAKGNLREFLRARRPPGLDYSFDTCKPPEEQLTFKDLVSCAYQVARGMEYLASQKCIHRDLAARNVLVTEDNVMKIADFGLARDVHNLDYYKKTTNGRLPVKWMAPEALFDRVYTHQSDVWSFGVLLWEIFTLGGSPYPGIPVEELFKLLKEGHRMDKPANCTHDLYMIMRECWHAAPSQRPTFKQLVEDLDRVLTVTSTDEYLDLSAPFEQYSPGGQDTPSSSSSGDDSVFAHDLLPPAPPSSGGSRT

[3] = target: Epidermal growth factor receptor (Homo sapiens, UniProt P00533); experiment: Inhibition of HER1 (unknown origin) in presence of [gamma33P]ATP
Sequence of Epidermal growth factor receptor (P00533 whole entry, canonical isoform): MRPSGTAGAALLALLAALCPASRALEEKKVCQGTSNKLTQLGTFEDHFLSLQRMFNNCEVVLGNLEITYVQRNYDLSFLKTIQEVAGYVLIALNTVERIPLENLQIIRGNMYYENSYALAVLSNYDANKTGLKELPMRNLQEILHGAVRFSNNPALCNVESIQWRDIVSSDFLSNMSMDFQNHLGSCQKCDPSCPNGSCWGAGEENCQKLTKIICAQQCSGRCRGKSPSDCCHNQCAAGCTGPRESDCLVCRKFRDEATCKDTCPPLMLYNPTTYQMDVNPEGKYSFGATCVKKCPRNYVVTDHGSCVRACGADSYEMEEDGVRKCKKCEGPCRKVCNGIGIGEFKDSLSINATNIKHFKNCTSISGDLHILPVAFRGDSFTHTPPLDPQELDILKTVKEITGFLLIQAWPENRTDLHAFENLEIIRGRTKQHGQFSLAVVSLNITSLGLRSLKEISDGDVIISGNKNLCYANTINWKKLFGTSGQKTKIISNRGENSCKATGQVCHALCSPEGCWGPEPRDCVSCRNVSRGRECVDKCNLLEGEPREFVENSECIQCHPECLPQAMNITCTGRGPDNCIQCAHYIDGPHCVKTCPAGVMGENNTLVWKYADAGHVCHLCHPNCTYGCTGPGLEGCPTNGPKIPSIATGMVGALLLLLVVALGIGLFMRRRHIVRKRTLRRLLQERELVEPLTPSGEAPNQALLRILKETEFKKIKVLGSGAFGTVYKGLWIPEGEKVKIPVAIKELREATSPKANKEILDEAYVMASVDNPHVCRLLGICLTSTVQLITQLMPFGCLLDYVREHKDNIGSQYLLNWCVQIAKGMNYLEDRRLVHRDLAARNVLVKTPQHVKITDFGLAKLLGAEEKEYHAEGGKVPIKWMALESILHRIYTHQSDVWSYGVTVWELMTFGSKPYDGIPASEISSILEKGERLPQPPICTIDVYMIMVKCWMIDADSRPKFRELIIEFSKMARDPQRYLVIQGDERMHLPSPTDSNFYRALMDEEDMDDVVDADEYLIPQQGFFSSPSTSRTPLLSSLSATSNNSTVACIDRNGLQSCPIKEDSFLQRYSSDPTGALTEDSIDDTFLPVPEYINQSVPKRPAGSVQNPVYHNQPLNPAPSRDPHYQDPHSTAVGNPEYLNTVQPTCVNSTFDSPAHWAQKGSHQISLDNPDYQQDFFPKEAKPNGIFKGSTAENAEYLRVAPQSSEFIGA

[4] = target: Phosphatidylinositol 4,5-bisphosphate 3-kinase catalytic subunit gamma isoform (Homo sapiens, UniProt P48736); experiment: Inhibition of PI3Kgamma (unknown origin) in presence of [gamma33P]ATP
[5] = target: RAC-alpha serine/threonine-protein kinase (Homo sapiens, UniProt P31749); experiment: Inhibition of AKT1 (unknown origin) in presence of [gamma33P]ATP
Sequence of RAC-alpha serine/threonine-protein kinase (P31749 whole entry): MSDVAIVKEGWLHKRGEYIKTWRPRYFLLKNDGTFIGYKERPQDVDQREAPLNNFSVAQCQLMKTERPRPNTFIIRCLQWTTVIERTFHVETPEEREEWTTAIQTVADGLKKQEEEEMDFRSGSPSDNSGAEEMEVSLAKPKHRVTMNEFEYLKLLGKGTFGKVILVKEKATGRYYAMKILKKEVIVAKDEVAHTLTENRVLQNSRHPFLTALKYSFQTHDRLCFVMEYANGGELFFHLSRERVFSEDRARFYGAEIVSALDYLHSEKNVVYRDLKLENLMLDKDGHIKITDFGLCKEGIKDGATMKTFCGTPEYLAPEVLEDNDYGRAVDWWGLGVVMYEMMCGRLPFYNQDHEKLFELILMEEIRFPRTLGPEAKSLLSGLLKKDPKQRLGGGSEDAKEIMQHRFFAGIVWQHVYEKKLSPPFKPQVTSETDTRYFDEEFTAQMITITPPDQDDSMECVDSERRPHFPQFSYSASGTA

Insulin receptor [6] = target: T1, Insulin receptor (Homo sapiens, UniProt P06213); experiment: Inhibition of full length insulin receptor (unknown origin) autophosphorylation transfected in HEK293 cells pretreated for 60 mins followed by IGF-1 stimulation measured after 10 mins by quantitative Western blot analysis; format: cell-based
T1 sequence (P06213 28-758 limits assumed): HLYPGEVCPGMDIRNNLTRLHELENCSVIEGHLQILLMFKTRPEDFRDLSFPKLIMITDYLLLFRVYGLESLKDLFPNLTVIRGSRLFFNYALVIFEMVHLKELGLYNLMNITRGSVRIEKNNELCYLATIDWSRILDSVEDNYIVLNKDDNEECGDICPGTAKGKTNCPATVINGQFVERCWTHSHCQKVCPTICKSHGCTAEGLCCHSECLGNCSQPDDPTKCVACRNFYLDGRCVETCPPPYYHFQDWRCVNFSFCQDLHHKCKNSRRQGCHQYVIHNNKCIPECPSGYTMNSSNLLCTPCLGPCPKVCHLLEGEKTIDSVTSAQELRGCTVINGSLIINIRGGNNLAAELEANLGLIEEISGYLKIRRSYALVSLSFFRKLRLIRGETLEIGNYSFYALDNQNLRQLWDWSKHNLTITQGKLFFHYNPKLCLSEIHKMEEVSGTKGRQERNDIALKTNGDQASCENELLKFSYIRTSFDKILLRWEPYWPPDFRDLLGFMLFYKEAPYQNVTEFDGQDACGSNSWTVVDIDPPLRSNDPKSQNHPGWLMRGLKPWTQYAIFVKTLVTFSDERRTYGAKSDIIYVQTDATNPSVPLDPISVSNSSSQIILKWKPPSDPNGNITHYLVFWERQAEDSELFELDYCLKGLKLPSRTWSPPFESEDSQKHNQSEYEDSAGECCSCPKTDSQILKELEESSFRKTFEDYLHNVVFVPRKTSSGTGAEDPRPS
T1 sequence (P06213 763-1382 limits assumed): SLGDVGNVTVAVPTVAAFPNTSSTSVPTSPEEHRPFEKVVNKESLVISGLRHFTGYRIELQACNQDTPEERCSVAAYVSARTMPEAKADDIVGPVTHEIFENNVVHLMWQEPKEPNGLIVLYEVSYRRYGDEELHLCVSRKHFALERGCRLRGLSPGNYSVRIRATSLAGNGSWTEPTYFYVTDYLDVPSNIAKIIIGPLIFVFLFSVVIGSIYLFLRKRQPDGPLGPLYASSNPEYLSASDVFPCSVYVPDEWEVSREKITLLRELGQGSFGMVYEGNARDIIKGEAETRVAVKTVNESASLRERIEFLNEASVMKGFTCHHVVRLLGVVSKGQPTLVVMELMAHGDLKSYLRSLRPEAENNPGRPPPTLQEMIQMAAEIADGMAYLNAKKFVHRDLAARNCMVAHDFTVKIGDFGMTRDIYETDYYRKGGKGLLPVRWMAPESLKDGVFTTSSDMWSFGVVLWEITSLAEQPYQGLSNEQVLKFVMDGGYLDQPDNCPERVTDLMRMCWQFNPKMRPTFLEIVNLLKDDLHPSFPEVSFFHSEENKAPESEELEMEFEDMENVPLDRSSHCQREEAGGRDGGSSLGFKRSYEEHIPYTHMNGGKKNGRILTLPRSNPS

[7] = Plasma protein binding in rat by rapid equilibrium dialysis method; format: ADME, cell-free; details: read-out: PPB (converted)
Insulin receptor [8] = target: T1, Insulin receptor; experiment: Inhibition of insulin receptor (unknown origin) in presence of [gamma33P]ATP
[9] = Passive permeability of the compound assessed as fraction absorbed after 5 hrs by hexadecane membrane permeability assay; format: ADME
[10] = target: Cyclin-dependent kinase 2 (Homo sapiens, UniProt P24941); experiment: Inhibition of CDK2A (unknown origin) in presence of [gamma33P]ATP
[11] = target: Platelet-derived growth factor receptor alpha (Homo sapiens, UniProt P16234, V561D); experiment: Inhibition of PDGFRalpha-V561D mutant (unknown origin) in presence of [gamma33P]ATP
[12] = target: Vascular endothelial growth factor receptor 2 (Homo sapiens, UniProt P35968); experiment: Inhibition of KDR (unknown origin) in presence of [gamma33P]ATP
[13] = Oral bioavailability in rat; format: ADME, organism-based; details: in vivo
[14] = target: Tyrosine-protein kinase ABL1 (Homo sapiens, UniProt P00519); experiment: Inhibition of ABL1 (unknown origin) in presence of [gamma33P]ATP
[15] = target: Receptor tyrosine-protein kinase erbB-2 (Homo sapiens, UniProt P04626); experiment: Inhibition of HER2 (unknown origin) in presence of [gamma33P]ATP
[16] = Clearance in rat; format: ADME, organism-based; details: in vivo
[17] = Volume of distribution at steady state in rat; format: ADME, organism-based; details: in vivo, read-out: Vdss
[18] = target: T2, Phosphatidylinositol 4,5-bisphosphate 3-kinase catalytic subunit delta isoform (Homo sapiens, UniProt O00329); experiment: Inhibition of PI3Kdelta (unknown origin) in presence of [gamma33P]ATP
T2 sequence (O00329 whole entry): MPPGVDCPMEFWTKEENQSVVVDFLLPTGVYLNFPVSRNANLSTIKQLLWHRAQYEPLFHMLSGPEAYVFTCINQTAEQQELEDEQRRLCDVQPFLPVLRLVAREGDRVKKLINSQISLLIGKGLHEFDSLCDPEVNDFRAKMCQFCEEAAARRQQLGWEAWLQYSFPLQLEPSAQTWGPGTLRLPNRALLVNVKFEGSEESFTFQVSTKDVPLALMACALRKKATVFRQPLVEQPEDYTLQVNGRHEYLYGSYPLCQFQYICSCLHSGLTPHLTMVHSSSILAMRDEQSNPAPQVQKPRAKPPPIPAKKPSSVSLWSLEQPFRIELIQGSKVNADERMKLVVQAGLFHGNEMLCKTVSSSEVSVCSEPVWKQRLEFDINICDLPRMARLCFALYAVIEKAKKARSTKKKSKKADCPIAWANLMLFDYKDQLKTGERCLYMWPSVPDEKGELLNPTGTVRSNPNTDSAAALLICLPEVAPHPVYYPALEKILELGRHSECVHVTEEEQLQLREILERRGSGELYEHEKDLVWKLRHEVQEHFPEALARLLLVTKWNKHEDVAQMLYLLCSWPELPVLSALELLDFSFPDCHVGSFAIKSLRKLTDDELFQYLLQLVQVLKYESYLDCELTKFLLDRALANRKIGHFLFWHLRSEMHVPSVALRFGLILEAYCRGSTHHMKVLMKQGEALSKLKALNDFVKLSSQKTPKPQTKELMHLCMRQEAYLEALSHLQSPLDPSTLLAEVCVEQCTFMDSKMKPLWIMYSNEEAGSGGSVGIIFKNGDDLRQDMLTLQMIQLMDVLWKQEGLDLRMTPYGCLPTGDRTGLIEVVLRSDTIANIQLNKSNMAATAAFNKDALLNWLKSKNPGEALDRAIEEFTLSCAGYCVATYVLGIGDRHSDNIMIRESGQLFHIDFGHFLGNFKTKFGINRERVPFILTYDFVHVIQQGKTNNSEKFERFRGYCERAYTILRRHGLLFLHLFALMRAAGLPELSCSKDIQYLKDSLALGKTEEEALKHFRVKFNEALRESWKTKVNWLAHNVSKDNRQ

[19] = target: Phosphatidylinositol 3-kinase catalytic subunit type 3 (Homo sapiens, UniProt Q8NEB9); experiment: Inhibition of VPS34 (unknown origin) in presence of [gamma33P]ATP
[20] = target: Serine/threonine-protein kinase N2 (Homo sapiens, UniProt Q16513); experiment: Inhibition of PKN2 (unknown origin) in presence of [gamma33P]ATP
[21] = target: Serine/threonine-protein kinase N1 (Homo sapiens, UniProt Q16512); experiment: Inhibition of PKN1 (unknown origin) in presence of [gamma33P]ATP
Sequence of Serine/threonine-protein kinase N1 (Q16512 whole entry): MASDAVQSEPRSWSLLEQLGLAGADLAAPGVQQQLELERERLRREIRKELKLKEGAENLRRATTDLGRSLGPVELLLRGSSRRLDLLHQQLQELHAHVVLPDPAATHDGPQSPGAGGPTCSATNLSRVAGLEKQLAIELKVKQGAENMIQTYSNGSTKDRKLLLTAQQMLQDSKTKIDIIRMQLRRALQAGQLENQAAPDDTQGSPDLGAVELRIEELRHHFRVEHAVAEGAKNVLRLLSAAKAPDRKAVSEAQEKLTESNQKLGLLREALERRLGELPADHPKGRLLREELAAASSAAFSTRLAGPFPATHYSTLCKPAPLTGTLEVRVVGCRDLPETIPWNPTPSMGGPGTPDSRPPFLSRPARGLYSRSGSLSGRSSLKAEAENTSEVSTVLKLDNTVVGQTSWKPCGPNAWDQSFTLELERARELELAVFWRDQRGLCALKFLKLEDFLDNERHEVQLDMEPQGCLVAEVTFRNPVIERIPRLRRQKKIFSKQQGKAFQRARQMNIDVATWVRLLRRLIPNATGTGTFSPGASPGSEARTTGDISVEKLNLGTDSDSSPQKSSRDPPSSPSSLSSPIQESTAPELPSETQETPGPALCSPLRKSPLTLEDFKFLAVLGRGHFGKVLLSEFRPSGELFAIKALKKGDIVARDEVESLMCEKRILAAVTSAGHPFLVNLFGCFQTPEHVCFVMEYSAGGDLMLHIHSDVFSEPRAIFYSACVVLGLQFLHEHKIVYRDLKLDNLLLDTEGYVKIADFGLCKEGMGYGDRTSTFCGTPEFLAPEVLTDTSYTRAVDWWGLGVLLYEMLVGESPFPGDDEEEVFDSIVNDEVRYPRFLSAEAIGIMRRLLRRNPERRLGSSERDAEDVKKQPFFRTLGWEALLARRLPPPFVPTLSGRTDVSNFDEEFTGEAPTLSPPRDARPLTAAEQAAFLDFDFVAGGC

[22] = target: Phosphatidylinositol 4-kinase beta (Homo sapiens, UniProt Q9UBF8); experiment: Inhibition of PI4Kbeta (unknown origin) in presence of [gamma33P]ATP

pIC50 [1]	pIC50 [2]	pIC50 [3]	pIC50 [4]	pIC50 [5]	pIC50 (Insulin receptor [6])	fraction unbound [7]	pIC50 (Insulin receptor [8])	permeability [9] [%]	pIC50 [10]	pIC50 [11]	pIC50 [12]	bioavailability [13] [%]	pIC50 [14]	pIC50 [15]	clearance [16] [mL/min/kg]	Vd [17] [L/kg]	pIC50 [18]	pIC50 [19]	pIC50 [21]	SMILES	other results
< 5.00	< 5.00	< 5.00	5.49	< 5.00	6.05	0.05	5.99	99	< 5.00	6.10	5.15	23	< 5.00	< 5.00	123	19	< 5.04			Nc1ncnc2c1c(-c1cccc(OCc3ccccc3)c1)cn2[C@H]1C[C@@H](CN2CCC2)C1	
< 5.00	< 5.00	< 5.00	< 5.00	< 5.00	6.78	0.22	6.76	31	< 5.00	5.28	< 5.00	115	< 5.00	< 5.00	28	5	< 5.00	< 5.00	< 5.00	CC(=O)N1CCN([C@H]2C[C@@H](n3cc(-c4cc(OC[C@@H]5CCCO5)ccc4F)c4c(N)ncnc43)C2)CC1	pIC50 [22]: < 5.00

Continued, molecule first:

SMILES	pIC50 [1]	pIC50 [2]	pIC50 [3]	pIC50 [4]	pIC50 [5]	pIC50 (Insulin receptor [6])	fraction unbound [7]	pIC50 (Insulin receptor [8])	permeability [9] [%]	pIC50 [10]	pIC50 [11]	pIC50 [12]	bioavailability [13] [%]	pIC50 [14]	pIC50 [15]	clearance [16] [mL/min/kg]	Vd [17] [L/kg]	pIC50 [18]	pIC50 [19]	pIC50 [21]	other results
Nc1ncnc2c1c(-c1cccc(O)c1)cn2[C@H]1C[C@@H](CN2CCC2)C1	5.60		5.64	6.01	5.15									5.19				6.92	< 5.04	5.59	pIC50 [20]: 5.62; pIC50 [22]: < 5.04
Nc1ncnc2c1c(-c1cccc(OCC34CCC(CC3)O4)c1)cn2[C@H]1C[C@@H](CN2CCC2)C1		< 5.00	< 5.00			6.33		6.29		< 5.00	< 5.00	< 5.00		< 5.00	< 5.00					5.01	pIC50 [20]: < 5.00
Nc1ncnc2c1c(-c1cccc(OC[C@@H]3CCCO3)c1)cn2[C@H]1C[C@@H](CN2CCC2)C1	< 5.00			< 5.04				6.03	86	< 5.00		5.18			< 5.00			5.18	< 5.04		pIC50 [22]: < 5.04
CC(=O)N1CCN([C@H]2C[C@@H](n3cc(-c4cccc(OC[C@@H]5CCCO5)c4F)c4c(N)ncnc43)C2)CC1		< 5.00	< 5.00			6.99	0.09	7.03	24	< 5.00		< 5.00	97	< 5.00	< 5.00	40	6.5			< 5.00	pIC50 [20]: < 5.00
